Assay results as given in US20260193236A1 (Protego Biopharma, Inc., priority 2022, published 2026).

test system: IRE1-XBP1s (XBP1-RLuc splicing reporter in HEK293 T-REx cells); test: IRE1-XBP1s activation assay (XBP1-RLuc splicing reporter, HEK293 T-REx cells, luminescence relative to thapsigargin); assay type: cell-based; settings: 18 h, compound 10 μM, HEK293 T-REx XBP1-RLuc reporter cells, relative to thapsigargin (Tg) 500 nM, read-out: Activity (IRE1-XBP1s activation, luminescence as % signal relative to thapsigargin, % Tg)
Procedure: IRE1-XBP1s activation Assay: HEK293 T-REx cells stably expressing the XBP1-RLuc splicing reporter were treated with an IRE1-XBP1s activator provided herein (10 μM) in the presence or absence of the IRE1 active site inhibitor 4μ8C (32 μM) for 18 h. Luminescence was shown as the percentage signal relative to thapsigargin (Tg) (500 nM, 18 h).

Compound	activation at 10 µM
Cc1ccc(OCCC(=O)Nc2cnn(CC(=O)N(C)CCOc3ccc(F)c(F)c3)c2)c(F)c1 [Compound 70]	< 30%
Cc1ccc(OCCC(=O)Nc2cnn(CC(=O)N(C)CCOc3ccc(Cl)cc3)c2)c(F)c1 [Compound 71]	< 30%
Cc1ccc(OCCC(=O)Nc2cnn(CC(=O)N(C)CCOc3ccc(F)c(Cl)c3)c2)c(F)c1 [Compound 72]	< 30%
Cc1ccc(OCCC(=O)Nc2cnn(CC(=O)N(C)CCOc3ccc(C4CC4)cc3)c2)c(F)c1 [Compound 73]	30 to 50%
COc1cccc(OCCN(C)C(=O)Cn2cc(NC(=O)CCOc3ccc(C)cc3F)cn2)c1 [Compound 74]	< 30%
Cc1ccc(OCCC(=O)Nc2cnn(CC(=O)N(C)CCOc3ccc(F)cc3)c2)c(F)c1 [Compound 75]	< 30%
Cc1ccc(OCCC(=O)Nc2cnn(CC(=O)N(C)CCOc3ccc(C)c(Cl)c3)c2)c(F)c1 [Compound 76]	< 30%
COc1ccc(OCCN(C)C(=O)Cn2cc(NC(=O)CCOc3ccc(C)cc3F)cn2)cc1 [Compound 77]	< 30%
Cc1ccc(OCCC(=O)Nc2cnn(CC(=O)N(C)CCOc3ccc(F)c(OC(F)(F)F)c3)c2)c(F)c1 [Compound 78]	< 30%
Cc1ccc(OCCC(=O)Nc2cnn(CC(=O)N(C)CCOc3ccc(C)c(C(F)(F)F)c3)c2)c(F)c1 [Compound 79]	< 30%
Cc1ccc(OCCC(=O)Nc2cnn(CC(=O)N(C)CCOc3ncc(F)cc3F)c2)c(F)c1 [Compound 80]	< 30%
Cc1ccc(OC[C@H](C)N(C)C(=O)Cn2cc(NC(=O)CCOc3c(F)cccc3F)cn2)cc1 [Compound 81]	> 50%
Cc1ccc(OC[C@@H](C)N(C)C(=O)Cn2cc(NC(=O)CCOc3c(F)cccc3F)cn2)cc1 [Compound 82]	> 50%
Cc1ccc(OCCN(C)C(=O)Cn2cc(NC(=O)CNCc3cccnc3N)cn2)cc1 [Compound 83]	< 30%
Cc1ccc(OCCN(C)C(=O)Cn2cc(NC(=O)COCc3cccnc3N)cn2)cc1 [Compound 84]	< 30%
Cc1ccc(OCCC(=O)Nc2cnn(CC(=O)N(C)CCOc3cc(F)c(C)c(F)c3)c2)c(F)c1 [Compound 85]	> 50%
Cc1ccc(OCCC(=O)Nc2cnn(CC(=O)N(C)CCOc3ccc(C(F)F)cc3)c2)c(F)c1 [Compound 86]	> 50%
Cc1cc(F)ccc1OCCC(=O)Nc1cnn(CC(=O)N(C)CCOc2ccc(C(=O)O)cc2)c1 [Compound 88]	< 30%
Cc1ccc(OCCC(=O)Nc2cnn(CC(=O)N(C)CCOc3ccc(C4(F)CC4)cc3)c2)c(F)c1 [Compound 89]	< 30%
Cc1ccc(OCCC(=O)Nc2cnn(CC(=O)N(C)CCOc3ncn(C)n3)c2)c(F)c1 [Compound 90]	< 30%
[2H]C([2H])([2H])c1ccc(OCCN(C)C(=O)Cn2cc(NC(=O)CCOc3ccc(C)cc3F)cn2)cc1 [Compound 91]	30 to 50%
Cc1ccc(OCCN(C)C(=O)Cn2cc(NC(=O)CCCc3ccccc3)cn2)cc1 [Compound 92, N-(1-(2-(methyl(2-(p-tolyloxy)ethyl)amino)-2-oxoethyl)-1H-pyrazol-4-yl)-4-phenylbutanamide]	< 30%
Cc1ccc(OCCN(C)C(=O)Cn2cc(NC(=O)CCNc3ncc(C)cn3)cn2)cc1 [Compound 93]	< 30%

Compound	activation at 10 µM
CN(CCOc1ccc(C(F)(F)F)cn1)C(=O)Cn1cc(NC(=O)CCOc2ccc(Cl)cc2F)cn1 [Compound 94]	30 to 50%
CN(CCOc1ccc(C(F)(F)F)cn1)C(=O)Cn1cc(NC(=O)CCOc2ccnc(N)c2)cn1 [Compound 95]	< 30%
COc1ccc(OCCN(C)C(=O)Cn2cc(NC(=O)CCOc3ccnc(F)c3)cn2)cc1 [Compound 96]	< 30%
Cc1ccc(OCCN(C)C(=O)Cn2cc(NC(=O)CCOc3c(F)cncc3Br)cn2)cc1 [Compound 97]	< 30%
Cc1ccc(OCCN(C)C(=O)Cn2cc(NC(=O)CCOc3ccnc(Br)c3)cn2)cc1 [Compound 98]	> 50%
Cc1ccc(OCCN(C)C(=O)Cn2cc(NC(=O)CCOc3ccnc(N)n3)cn2)cc1 [Compound 99]	> 50%
Cc1ccc(OCCN(C)C(=O)Cn2cc(NC(=O)CCOc3cccc(Br)n3)cn2)cc1 [Compound 100]	> 50%
Cc1ccc(OCCN(C)C(=O)Cn2cc(NC(=O)CCOc3ccnc(NC(=O)OC(C)(C)C)c3)cn2)cc1 [Compound 101]	> 50%
Cc1ccc(OCCN(C)C(=O)Cn2cc(NC(=O)CCOc3cccc(NC(=O)OC(C)(C)C)n3)cn2)cc1 [Compound 102]	> 50%
Cc1ccc(OCCN(C)C(=O)Cn2cc(NC(=O)CCOc3cccc(N)n3)cn2)cc1 [Compound 103]	> 50%
Cc1ccc(OCCN(C)C(=O)Cn2cc(NC(=O)CCOc3ccnc(N)c3)cn2)cc1 [Compound 104]	> 50%
Cc1ccc(OCCN(C)C(=O)Cn2cc(NC(=O)CCOc3cccc(C)n3)cn2)cc1 [Compound 105]	> 50%
CNc1nccc(OCCC(=O)Nc2cnn(CC(=O)N(C)CCOc3ccc(C)cc3)c2)n1 [Compound 106]	> 50%
C=C(C)c1cccc(OCCC(=O)Nc2cnn(CC(=O)N(C)CCOc3ccc(C)cc3)c2)n1 [Compound 107]	< 30%
Cc1ccc(OCCN(C)C(=O)Cn2cc(NC(=O)CCOc3cccc(C(C)C)n3)cn2)cc1 [Compound 108]	< 30%
Cc1ccc(OCCN(C)C(=O)Cn2cc(NC(=O)CCOc3ncncc3N)cn2)cc1 [Compound 109]	> 50%
Cc1ccc(OCCN(C)C(=O)Cn2cc(NC(=O)CCOc3ccncc3[N+](=O)[O-])cn2)cc1 [Compound 111]	< 30%
Cc1ccc(OCCN(C)C(=O)Cn2cc(NC(=O)CCOc3ccncc3N)cn2)cc1 [Compound 112]	30 to 50%
Cc1ccc(OCCN(C)C(=O)Cn2cc(NC(=O)CCOc3ncccc3[N+](=O)[O-])cn2)cc1 [Compound 113]	> 50%
Cc1ccc(OCCN(C)C(=O)Cn2cc(NC(=O)CCOc3ncccc3N)cn2)cc1 [Compound 114]	> 50%
Cc1ccc(OCCN(C)C(=O)Cn2cc(NC(=O)/C=C/Oc3c(Cl)ccnc3C)cn2)cc1 [Compound 115]	< 30%
Cc1ccc(OCCN(C)C(=O)Cn2cc(NC(=O)CCOc3c(F)cc(C)cc3F)cn2)cc1 [Compound 116]	> 50%
Cc1ccc(OCCN(C)C(=O)Cn2cc(NC(=O)CCOc3cncnc3N)cn2)cc1 [Compound 117]	< 30%

Compound	activation at 10 µM
Cc1ccc(OCCN(C)C(=O)Cn2cc(NC(=O)CCNc3cncc(N)c3)cn2)cc1 [Compound 119]	< 30%
COc1cc(NCCC(=O)Nc2cnn(CC(=O)N(C)CCOc3ccc(C)cc3)c2)ccn1 [Compound 120]	> 50%
Cc1ccc(OCCN(C)C(=O)Cn2cc(NC(=O)CCNc3cnc(F)c(C)c3)cn2)cc1 [Compound 121]	> 50%
Cc1ccc(OCCN(C)C(=O)Cn2cc(NC(=O)CCNc3cncc(N)n3)cn2)cc1 [Compound 122]	< 30%
Cc1ccc(OCCN(C)C(=O)Cn2cc(NC(=O)CCNc3cc(C)nc(C)c3)cn2)cc1 [Compound 123, 3-((2,6-dimethylpyridin-4-yl)amino)-N-(1-(2-(methyl(2-(p-tolyloxy)ethyl)amino)-2-oxoethyl)-1H-pyrazol-4-yl)propanamide]	30 to 50%
COc1ccc(OCCN(C)C(=O)Cn2cc(NC(=O)CCNc3ccnc4ncnn34)cn2)cc1 [Compound 124]	30 to 50%
Cc1ccc(OCCN(C)C(=O)Cn2cc(NC(=O)CCNc3ncc(C#N)cn3)cn2)cc1 [Compound 125]	< 30%
Cc1ccc(OCCN(C)C(=O)Cn2cc(NC(=O)CCNc3ccc(C)cn3)cn2)cc1 [Compound 126]	< 30%
Cc1ccc(OCCN(C)C(=O)Cn2cc(NC(=O)CCNc3cnc(Cl)cn3)cn2)cc1 [Compound 127]	> 50%
Cc1ccc(OCCN(C)C(=O)Cn2cc(NC(=O)CCNc3ccnc(C(F)(F)F)c3)cn2)cc1 [Compound 128]	< 30%
Cc1ccc(OCCN(C)C(=O)Cn2cc(NC(=O)CCNc3ccc(Cl)cn3)cn2)cc1 [Compound 129]	< 30%
Cc1ccc(OCCN(C)C(=O)Cn2cc(NC(=O)CCNc3ncc(C(F)(F)F)cc3Cl)cn2)cc1 [Compound 130]	< 30%
Cc1ccc(OCCN(C)C(=O)Cn2cc(NC(=O)CCNc3ccnc(F)c3)cn2)cc1 [Compound 131]	30 to 50%
Cc1ccc(OCCN(C)C(=O)Cn2cc(NC(=O)CCNc3cccc(C#N)n3)cn2)cc1 [Compound 132]	> 50%
Cc1ccc(OCCN(C)C(=O)Cn2cc(NC(=O)CCNc3cc(C(F)(F)F)ccn3)cn2)cc1 [Compound 133]	> 50%
Cc1ccc(OCCN(C)C(=O)Cn2cc(NC(=O)CCNc3nc(Cl)ns3)cn2)cc1 [Compound 134]	> 50%
Cc1ccc(OCCN(C)C(=O)Cn2cc(NC(=O)CCNc3ccnc(Br)c3)cn2)cc1 [Compound 135]	30 to 50%
Cc1ccc(OCCN(C)C(=O)Cn2cc(NC(=O)CCNc3ccnc(F)n3)cn2)cc1 [Compound 136]	30 to 50%
Cc1ccc(OCCN(C)C(=O)Cn2cc(NC(=O)CCNc3cc(C#N)ccn3)cn2)cc1 [Compound 137]	< 30%
Cc1ccc(OCCN(C)C(=O)Cn2cc(NC(=O)CCNc3ncccn3)cn2)cc1 [Compound 138]	> 50%
Cc1ccc(OCCN(C)C(=O)Cn2cc(NC(=O)CCNc3nccc(F)n3)cn2)cc1 [Compound 139]	< 30%
Cc1ccc(OCCN(C)C(=O)Cn2cc(NC(=O)CCNc3ncc(Cl)cc3F)cn2)cc1 [Compound 140]	> 50%
Cc1ccc(OCCN(C)C(=O)Cn2cc(NC(=O)CCNc3ncccc3C#N)cn2)cc1 [Compound 141]	< 30%
